Measurements: US5712417A, “Inhibitors of retroviral proteases” (Abbott Laboratories, priority 1989, dated 1998)
Counter-ions that a name gives are not always drawn. Like-named read-outs stand apart in the source and are kept apart here.

Biological target: T1, HIV protease (Human immunodeficiency virus type 1 group M subtype B, UniProt P04585)
T1 construct: HIV protease consists of 99 amino acids and is evidently split off by itself from the pol polyprotein
Assay: Inhibition of HIV protease (cleavage of H-Ser-Phe-Asn-Phe-Opr-Gln-Ile-OH, HPLC)
Assay type: biochemical
From the text: The compounds of the formula (I) according to the invention have enzyme-inhibiting properties. In particular, they inhibit the action of retroviral aspartyl proteases, such as that of HIV protease. Their enzyme-inhibitory action, which is in the milli- to subnanomolar range, can be determined as follows.
The heptapeptide: H-Ser-Phe-Asn-Phe-Pro-Gln-Ile-OH (P. L. Darke et al., Biophys. Res. Commun. 156 (1988) 297-303), inter alia, has hitherto been used as the substrate of HIV protease. HIV protease cleaves the substrate here between the second Phe and Pro.
General instructions for testing inhibitors of HIV proteases: a) Preparation of the substrate solution:
2 mg of H-Ser-Phe-Asn-Phe-Opr-Gln-Ile-OH (H-Opr-OH=5-oxaproline) are dissolved in 1 ml of MGTE15 buffer (use of ultrasound if necessary) and the solution is then filtered over a sterile filter (0.45 μm). […]
b) Preparation of the inhibitor solution:
2.5 times the desired molarity of the inhibitor per ml of solution are weighed out and dissolved in DMSO (10% of the final volume). The solution is diluted to the final volume with MGTE15 buffer and filtered over a sterile filter (0.45 μm). […]
c) Preparation of the protease solution:
5 μl of the HIV protease solution are diluted with MGTE25 buffer as required.
10 μl portions of the substrate solution are pipetted into test-tubes (16×100) with a screw cap. For the blank experiment, 10 μl of MGTE15 buffer containing 10% of DMSO are pipetted into a test-tube. 10 μl portions of the inhibitor solutions are added to the other test-tubes. The mixtures are incubated at 37° C. for 5-10 minutes and 5 μl of the protease solution are then added to each sample, After reaction at 35° C. for 2 hours, 10 or 20 μl (depending on the sensitivity of the HPLC apparatus) of each sample are then pipetted off, introduced into microvials and diluted with 120 μl of the HPLC mobile phase. […]
e) Conditions for the HPLC analysis:
20% (weight/weight) of aceto-
Column: Merck ®LICHROSORB RP18 (5 μm) 250×4
Column temperature: 42° C.
Detector parameters: 215 nm, 0.08 AUF, 18.2° C.
Analysis time: 11 minutes
Retention time of the substrate: 8.1 minutes
Retention time of the N-terminal tetrapeptide: 3.9 minutes
20 mM morpholinoethanesulfonic acid (MES)
15% (weight/volume) of glycerol
0.1% (volume/volume) of Triton ×100
1 mM phenylmethylsulfonyl fluoride (PMSF)
25% (weight/volume) of glycerol, additionally 1 mM dithiothreitol (DTT) The MES, EDTA, NaCl, DTT and PMSF are weighed into a conical flask and dissolved in a little water and the pH is brought to 6. The corresponding amount of glycerol is weighed into a measuring flask and ®Triton ×100 is pipetted in. The aqueous solution is transferred to the measuring flask and made up to the mark with water.
A 0.1M solution is prepared from orthophosphoric acid (FLUKA extra pure analytical grade). This solution is brought to exactly pH 2.5 with triethylamine (FLUKA extra pure analytical grade). The weight of the solution is determined and the corresponding amount of acetonitrile (fume cupboard) is weighed in. The mixture is mixed thoroughly and degassed with helium 5.0 for about 5 minutes.
Under the conditions chosen here, heptapeptides are separated from the N-terminal tetrapeptide formed during enzymatic cleavage. The percentage content of the tetrapeptide peak in respect of the sum of tetrapeptide+heptapeptide corresponds to the cleaving rate. The following IC50 values indicate the inhibitor concentration at which the cleavage rate is halved.

[1] = inhibitor concentration at which the cleavage rate is halved, pH 6, 2 hours, read-out: IC50

IC50 [1]	Structure (SMILES)	further results
380 nM	CC(C)[C@H](NC(=O)C(Cc1ccccc1)Cn1ccnc1)C(=O)N[C@@H](Cc1ccccc1)[C@H](O)[C@@H](O)[C@H](Cc1ccccc1)NC(=O)[C@@H](NC(=O)C(Cc1ccccc1)Cn1ccnc1)C(C)C (single isomer, unassigned) [Example 95, N,N'-bis-<(2-(1-Imidazolylmethyl)-3-phenylpropionyl)-L-valyl->-2S,5S-diamino-1,6-diphenylhexane-3S,4S-diol]	
24 nM	CC(C)C(NC(=O)C(CN)Cc1ccccc1)C(=O)NC(Cc1ccccc1)C(O)C(O)C(Cc1ccccc1)NC(=O)C(NC(=O)C(CN)Cc1ccccc1)C(C)C (single isomer, unassigned) [Example 104, N,N'-bis-<(3-Amino-2-benzyl)-propionyl-L-valyl>-2S,5S-diamino-1,6-diphenylhexane-3R,4R-diol dihydrochloride]	
	CC(C)(C)OC(=O)N[C@@H](Cc1ccccc1)[C@H](O)[C@H](O)[C@H](Cc1ccccc1)NC(=O)OC(C)(C)C [Example 5, N,N'-bis-(tert.-Butoxycarbonyl)-2S,5S-diamino-1,6-diphenylhexane-3R,4S-diol]	IC50 (read-out: IC50): 3600 nM
	CC(C)[C@H](NC(=O)OC(C)(C)C)C(=O)N[C@@H](Cc1ccccc1)[C@H](O)[C@@H](O)[C@H](Cc1ccccc1)NC(=O)[C@@H](NC(=O)OC(C)(C)C)C(C)C [Example 8, N,N'-bis-(tert.-Butoxycarbonyl-L-valyl)-2S,5S-diamino-1,6-diphenylhexane-3S,4S-diol]	IC50 (inhibitor concentration at which the cleavage rate is halved, unit as printed for Ex. 8, read-out: IC50): 30000 nM
17 nM	CC(C)[C@H](NC(=O)[C@@H](N)CCCCN)C(=O)N[C@@H](Cc1ccccc1)[C@@H](O)[C@H](O)[C@H](Cc1ccccc1)NC(=O)[C@@H](NC(=O)[C@@H](N)CCCCN)C(C)C [Example 10, N,N'-bis-(L-lysyl-L-valyl)-2S,5S-diamino-1,6-diphenylhexane-3R,4R-diol tetrahydrochloride]	
	CC(C)[C@H](NC(=O)[C@H](Cc1cccc2ccccc12)CS(=O)(=O)C(C)(C)C)C(=O)N[C@@H](Cc1ccccc1)[C@@H](O)[C@H](O)[C@H](Cc1ccccc1)NC(=O)[C@@H](NC(=O)[C@H](Cc1cccc2ccccc12)CS(=O)(=O)C(C)(C)C)C(C)C [Example 13, N,N'-bis-<(2S-(1,1-Dimethylethylsulfonylmethyl)-3-(1-naphthyl)-propionyl)-L-valyl>-2S,5S-diamino-1,6-diphenylhexane-3R,4R-diol]	IC50 (inhibitor concentration at which the cleavage rate is halved, unit as printed for Ex. 13, read-out: IC50): 1.3 nM
1 nM	CC(C)[C@H](NC(=O)[C@H](Cc1ccccc1)NC(=O)[C@@H](N)CO)C(=O)N[C@@H](Cc1ccccc1)[C@@H](O)[C@H](O)[C@H](Cc1ccccc1)NC(=O)[C@@H](NC(=O)[C@H](Cc1ccccc1)NC(=O)[C@@H](N)CO)C(C)C [Example 14, N,N'-bis-(L-Seryl-L-phenylalanyl-L-valyl)-2S,5S-diamino-1,6-diphenylhexane-3R,4R-diol dihydrochloride]	
	CC(C)[C@H](NC(=O)[C@H](Cc1ccccc1)NC(=O)[C@H](COC(C)(C)C)NC(=O)OC(C)(C)C)C(=O)N[C@@H](Cc1ccccc1)[C@@H](O)[C@H](O)[C@H](Cc1ccccc1)NC(=O)[C@@H](NC(=O)[C@H](Cc1ccccc1)NC(=O)[C@H](COC(C)(C)C)NC(=O)OC(C)(C)C)C(C)C [Example 15, N,N'-bis-(tert.-Butoxycarbonyl-L-(O-tert.-butylseryl)-L-phenylalanyl-L-valyl)-2S,5S-diamino-1,6-diphenyl-hexane-3R,4R-diol]	IC50: 400 nM
0.85 nM	CC(C)[C@H](NC(=O)[C@@H](N)Cc1ccccc1)C(=O)N[C@@H](Cc1ccccc1)[C@H](O)[C@@H](O)[C@H](Cc1ccccc1)NC(=O)[C@@H](NC(=O)[C@@H](N)Cc1ccccc1)C(C)C [Example 17, N,N'-bis-(L-Phenylalanyl-L-valyl)-2S,5S-diamino-1,6-diphenylhexane-3S,4S-diol dihydrochloride]	
	CC(C)[C@H](NC(=O)[C@@H](N)Cc1ccccc1)C(=O)N[C@@H](Cc1ccccc1)[C@H](O)[C@H](O)[C@H](Cc1ccccc1)NC(=O)[C@@H](NC(=O)[C@@H](N)Cc1ccccc1)C(C)C [Example 18, N,N'-bis-(L-Phenylalanyl-L-valyl)-2S,5S-diamino-1,6-diphenylhexane-3R,4S-diol dihydrochloride]	IC50 (read-out: IC50): 1.2 nM
0.7 nM	CC(C)[C@H](NC(=O)[C@H](Cc1ccccc1)NC(=O)[C@@H](N)CO)C(=O)N[C@@H](Cc1ccccc1)[C@H](O)[C@@H](O)[C@H](Cc1ccccc1)NC(=O)[C@@H](NC(=O)[C@H](Cc1ccccc1)NC(=O)[C@@H](N)CO)C(C)C [Example 19, N,N'-bis-(L-Seryl-L-phenylalanyl-L-valyl)-2S,5S-diamino-1,6-diphenylhexane-3S,4S-diol dihydrochloride]	
220 nM	CC(C)[C@H](NC(=O)[C@@H](N)Cc1ccccc1)C(=O)N[C@H](CNC[C@H](Cc1ccccc1)NC(=O)[C@@H](NC(=O)[C@@H](N)Cc1ccccc1)C(C)C)Cc1ccccc1 [Example 21, Bis-(N-(L-phenylalanyl-L-valyl)-2S-amino-3-phenylpropyl)-amine trihydrochloride]	

Structure (SMILES)	IC50 [1]	further results
CC(C)[C@H](NC(=O)C(CNC(=O)OC(C)(C)C)Cc1ccccc1)C(=O)N[C@@H](Cc1ccccc1)[C@@H](O)[C@H](O)[C@H](Cc1ccccc1)NC(=O)[C@@H](NC(=O)C(CNC(=O)OC(C)(C)C)Cc1ccccc1)C(C)C (single isomer, unassigned) [Example 105, N,N'-bis-<(2-Benzyl-3-tert.-butoxycarbonylamino)-propionyl-L-valyl>-2S,5S-diamino-1,6-diphenylhexane-3R,4R-diol]	19 nM	
CC(C)[C@H](NC(=O)[C@H](Cc1ccccc1)NC(=O)OC(C)(C)C)C(=O)N[C@@H](Cc1ccccc1)[C@@H](O)[C@H](O)[C@H](Cc1ccccc1)NC(=O)[C@@H](NC(=O)[C@H](Cc1ccccc1)NC(=O)OC(C)(C)C)C(C)C [Example 1, N,N,-bis-(tert.-Butoxycarbonyl-L-phenylalanyl-L-valyl)-2S,5S-diamino-1,6-diphenylhexane-3R,4R-diol]	10 nM	
CC(C)[C@H](NC(=O)[C@H](Cc1ccccc1)NC(=O)OC(C)(C)C)C(=O)N[C@@H](Cc1ccccc1)[C@H](O)[C@@H](O)[C@H](Cc1ccccc1)NC(=O)[C@@H](NC(=O)[C@H](Cc1ccccc1)NC(=O)OC(C)(C)C)C(C)C [Example 6, N,N'-bis-(tert.-Butoxycarbonyl-L-phenylalanyl-L-valyl)-2S,5S-diamino-1,6-diphenylhexane-3S,4S-diol]	8.8 nM	
CC(C)[C@H](NC(=O)[C@H](Cc1ccccc1)NC(=O)OC(C)(C)C)C(=O)N[C@@H](Cc1ccccc1)[C@H](O)[C@H](O)[C@H](Cc1ccccc1)NC(=O)[C@@H](NC(=O)[C@H](Cc1ccccc1)NC(=O)OC(C)(C)C)C(C)C [Example 7, N,N'-bis-(tert.-Butoxycarbonyl-L-phenylalanyl-L-valyl)-2S,5S-diamino-1,6-diphenylhexane-3R,4S-diol]	18 nM	
CC(C)[C@H](NC(=O)[C@H](CCCCN)NC(=O)OC(C)(C)C)C(=O)N[C@@H](Cc1ccccc1)[C@@H](O)[C@H](O)[C@H](Cc1ccccc1)NC(=O)[C@@H](NC(=O)[C@H](CCCCN)NC(=O)OC(C)(C)C)C(C)C [Example 11, N,N'-bis-(Nα-<tert.-Butoxycarbonyl>-L-lysyl-L-valyl)-2S,5S-diamino-1,6-diphenyl-hexane-3R,4R-diol dihydrochloride]	0.8 nM	
CC(C)(C)OC(=O)N[C@H](CNC[C@H](Cc1ccccc1)NC(=O)OC(C)(C)C)Cc1ccccc1 [Example 25, Bis-(N-tert.-butoxycarbonyl-2S-amino-3-phenylpropyl)-amine hydrochloride]	18000 nM	
